Experimental data from ChEMBL document CHEMBL3885861, “Open TG-GATES”.

Species on record: Rattus norvegicus
Assay: Open TG-GATES - Regimen: Daily Repeat
Format: toxicity, organism-based, Sprague-Dawley
Set-up: regimen Daily Repeat, gender Male, age 6 weeks
Settings: in vivo, po, 10 mg/kg, route gavage, dose level Middle; for APTT / Bas / Eos / Fbg / Hb / Ht / Lym / MCH / MCHC / Mono / Neu / Plat / RBC / Ret: tissue Blood; for KIDNEY_L / KIDNEY_R / KIDNEY_TOTAL: tissue Kidney; for LIVER: tissue Liver; for ALP / ALT / AST / BUN / CRE / Ca / Cl / DBIL / GLC / IP / K / LDH / Na / PL / RALB / TBIL / TC / TG / TP / gamma-GTP: tissue Plasma

For O=C(CCCN1CCC(O)(c2ccc(Cl)cc2)CC1)c1ccc(F)cc1 [HALOPERIDOL], the TERMINAL_BW (72 h, time 3 day) was 211.5 g, the APTT (72 h, time 3 day) was 16 s and the Bas (72 h, time 3 day) was 0%. It also gave an Eos (72 h, time 3 day) of 0.6%, a Fbg (72 h, time 3 day) of 205.8 mg/dL and a Hb (72 h, time 3 day) of 14.8 g/dL. It also gave a Ht (72 h, time 3 day) of 44.6%, a Lym (72 h, time 3 day) of 81.4% and an MCH (72 h, time 3 day) of 21.3 pg. For the same compound, the MCHC (72 h, time 3 day) was 33.3%, the Mono (72 h, time 3 day) was 5.8% and the Neu (72 h, time 3 day) was 12.2%. It also gave a Plat (72 h, time 3 day) of 127.9 x10_4/uL, an RBC (72 h, time 3 day) of 695.4 x10_4/ul and a Ret (72 h, time 3 day) of 4.6%. The KIDNEY_L (72 h, time 3 day) was 0.9 g, the KIDNEY_R (72 h, time 3 day) was 0.9 g and the KIDNEY_TOTAL (72 h, time 3 day) was 1.8 g. For the same compound, the LIVER (72 h, time 3 day) was 10.3 g, the ALP (72 h, time 3 day) was 873.2 IU/L and the ALT (72 h, time 3 day) was 41 IU/L. The AST (72 h, time 3 day) was 64 IU/L, the BUN (72 h, time 3 day) was 22.2 mg/dL and the CRE (72 h, time 3 day) was 0.5 mg/dL. The Ca (72 h, time 3 day) was 11.3 mg/dL, the Cl (72 h, time 3 day) was 106.2 meq/L and the DBIL (72 h, time 3 day) was 0.002 mg/dL. It also gave a GLC (72 h, time 3 day) of 180 mg/dL, an IP (72 h, time 3 day) of 7.8 mg/dL and a K (72 h, time 3 day) of 4.7 meq/L. It also gave an LDH (72 h, time 3 day) of 95 IU/L, a Na (72 h, time 3 day) of 138.8 meq/L and a PL (72 h, time 3 day) of 177.8 mg/dL. For the same compound, the RALB (72 h, time 3 day) was 4.2 g/dL, the TBIL (72 h, time 3 day) was 0.2 mg/dL and the TC (72 h, time 3 day) was 78.2 mg/dL. For the same compound, the TG (72 h, time 3 day) was 156.2 mg/dL, the TP (72 h, time 3 day) was 6.2 g/dL and the gamma-GTP (72 h, time 3 day) was 1.2 IU/L. For the same compound, the TERMINAL_BW ([…], time 7 day) was 234.1 g, the TERMINAL_BW ([…], time 14 day) was 281.3 g and the TERMINAL_BW ([…], time 28 day) was 341 g. It also gave an APTT ([…], time 7 day) of 16.8 s, a Bas ([…], time 7 day) of 0% and an Eos ([…], time 7 day) of 0.4%. It also gave a Fbg ([…], time 7 day) of 215.6 mg/dL, a Hb ([…], time 7 day) of 15 g/dL and a Ht ([…], time 7 day) of 44.6%. The Lym ([…], time 7 day) was 75.4%, the MCH ([…], time 7 day) was 21 pg and the MCHC ([…], time 7 day) was 33.7%. It also gave a Mono ([…], time 7 day) of 5%, a Neu ([…], time 7 day) of 19.2% and a Plat ([…], time 7 day) of 99.5 x10_4/uL. The RBC ([…], time 7 day) was 717.6 x10_4/ul, the Ret ([…], time 7 day) was 3.7% and the APTT ([…], time 14 day) was 16.3 s. For the same compound, the Bas ([…], time 14 day) was 0%, the Eos ([…], time 14 day) was 0.2% and the Fbg ([…], time 14 day) was 212.2 mg/dL. For the same compound, the Hb ([…], time 14 day) was 14.7 g/dL, the Ht ([…], time 14 day) was 43.9% and the Lym ([…], time 14 day) was 75.6%. For the same compound, the MCH ([…], time 14 day) was 20.3 pg, the MCHC ([…], time 14 day) was 33.5% and the Mono ([…], time 14 day) was 4.2%. It also gave a Neu ([…], time 14 day) of 20%, a Plat ([…], time 14 day) of 93.8 x10_4/uL and an RBC ([…], time 14 day) of 722.2 x10_4/ul. For the same compound, the Ret ([…], time 14 day) was 3.6%, the APTT ([…], time 28 day) was 16 s and the Bas ([…], time 28 day) was 0%. The Eos ([…], time 28 day) was 0.4%, the Fbg ([…], time 28 day) was 220.6 mg/dL and the Hb ([…], time 28 day) was 15.3 g/dL. For the same compound, the Ht ([…], time 28 day) was 45.8%, the Lym ([…], time 28 day) was 78.8% and the MCH ([…], time 28 day) was 19.5 pg. It also gave an MCHC ([…], time 28 day) of 33.5%, a Mono ([…], time 28 day) of 5.6% and a Neu ([…], time 28 day) of 15.2%. For the same compound, the Plat ([…], time 28 day) was 95.6 x10_4/uL, the RBC ([…], time 28 day) was 788.6 x10_4/ul and the Ret ([…], time 28 day) was 2.6%. The KIDNEY_L ([…], time 7 day) was 1 g, the KIDNEY_R ([…], time 7 day) was 1 g and the KIDNEY_TOTAL ([…], time 7 day) was 1.9 g. For the same compound, the KIDNEY_L ([…], time 14 day) was 1.1 g, the KIDNEY_R ([…], time 14 day) was 1.1 g and the KIDNEY_TOTAL ([…], time 14 day) was 2.2 g. The KIDNEY_L ([…], time 28 day) was 1.2 g, the KIDNEY_R ([…], time 28 day) was 1.2 g and the KIDNEY_TOTAL ([…], time 28 day) was 2.4 g. The LIVER ([…], time 7 day) was 10.8 g, the LIVER ([…], time 14 day) was 12.3 g and the LIVER ([…], time 28 day) was 13.4 g. For the same compound, the ALP ([…], time 7 day) was 930.4 IU/L, the ALT ([…], time 7 day) was 38.6 IU/L and the AST ([…], time 7 day) was 66.8 IU/L. The BUN ([…], time 7 day) was 20.2 mg/dL, the CRE ([…], time 7 day) was 0.6 mg/dL and the Ca ([…], time 7 day) was 11.4 mg/dL. For the same compound, the Cl ([…], time 7 day) was 106.6 meq/L, the DBIL ([…], time 7 day) was 0.004 mg/dL and the GLC ([…], time 7 day) was 179.6 mg/dL. For the same compound, the IP ([…], time 7 day) was 7.3 mg/dL, the K ([…], time 7 day) was 4.6 meq/L and the LDH ([…], time 7 day) was 84.8 IU/L. The Na ([…], time 7 day) was 139 meq/L, the PL ([…], time 7 day) was 174.4 mg/dL and the RALB ([…], time 7 day) was 4 g/dL. It also gave a TBIL ([…], time 7 day) of 0.3 mg/dL, a TC ([…], time 7 day) of 84.8 mg/dL and a TG ([…], time 7 day) of 123.8 mg/dL. The TP ([…], time 7 day) was 6.2 g/dL, the gamma-GTP ([…], time 7 day) was 1.8 IU/L and the ALP ([…], time 14 day) was 773.8 IU/L. The ALT ([…], time 14 day) was 29.2 IU/L, the AST ([…], time 14 day) was 62.8 IU/L and the BUN ([…], time 14 day) was 19.8 mg/dL. The CRE ([…], time 14 day) was 0.4 mg/dL, the Ca ([…], time 14 day) was 10.7 mg/dL and the Cl ([…], time 14 day) was 107 meq/L. The DBIL ([…], time 14 day) was 0.036 mg/dL, the GLC ([…], time 14 day) was 184.2 mg/dL and the IP ([…], time 14 day) was 7.8 mg/dL. The K ([…], time 14 day) was 4.5 meq/L, the LDH ([…], time 14 day) was 83.2 IU/L and the Na ([…], time 14 day) was 138.4 meq/L. The PL ([…], time 14 day) was 156 mg/dL, the RALB ([…], time 14 day) was 4 g/dL and the TBIL ([…], time 14 day) was 0.3 mg/dL. The TC ([…], time 14 day) was 70.2 mg/dL, the TG ([…], time 14 day) was 146 mg/dL and the TP ([…], time 14 day) was 6.2 g/dL. For the same compound, the gamma-GTP ([…], time 14 day) was 1.6 IU/L, the ALP ([…], time 28 day) was 603.8 IU/L and the ALT ([…], time 28 day) was 32.4 IU/L. For the same compound, the AST ([…], time 28 day) was 66.8 IU/L, the BUN ([…], time 28 day) was 20.4 mg/dL and the CRE ([…], time 28 day) was 0.6 mg/dL. The Ca ([…], time 28 day) was 10.7 mg/dL, the Cl ([…], time 28 day) was 107.8 meq/L and the DBIL ([…], time 28 day) was 0.062 mg/dL. For the same compound, the GLC ([…], time 28 day) was 172.8 mg/dL, the IP ([…], time 28 day) was 6.4 mg/dL and the K ([…], time 28 day) was 4.7 meq/L. It also gave an LDH ([…], time 28 day) of 72 IU/L, a Na ([…], time 28 day) of 139.4 meq/L and a PL ([…], time 28 day) of 141 mg/dL. It also gave an RALB ([…], time 28 day) of 4.2 g/dL, a TBIL ([…], time 28 day) of 0.3 mg/dL and a TC ([…], time 28 day) of 63.6 mg/dL. It also gave a TG ([…], time 28 day) of 133.4 mg/dL, a TP ([…], time 28 day) of 6.7 g/dL and a gamma-GTP ([…], time 28 day) of 1.6 IU/L.
